According to ChEMBL document CHEMBL1201861, “Genomics of Drug Sensitity in Cancer screening data, Wellcome Trust Sanger Institute”:
pIC50: −log10 of the molar value.

Assays:
SJRH30 = assay: cells; assay type: functional, cell-based; conditions: Homo sapiens;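 note: growth inhibition of human SJRH30 cells, read out with a cell viability assay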
Description: SANGER: Inhibition of human SJRH30 cell growth in a cell viability assay.

HTC-C3 = assay: cells; assay type: functional, cell-based; conditions: Homo sapiens;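 note: inhibition of cell growth, read out with a cell viability assay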
Description: SANGER: Inhibition of human HTC-C3 cell growth in a cell viability assay.

SW1783 = assay: cells; assay type: functional, cell-based; conditions: Homo sapiens
Description: SANGER: Inhibition of human SW1783 cell growth in a cell viability assay.

ESS-1 = assay: cells; assay type: functional, cell-based; conditions: Homo sapiens;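 note: growth inhibition of human ESS-1 cells, read out by a cell viability assay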
Description: SANGER: Inhibition of human ESS-1 cell growth in a cell viability assay.

MDA-MB-453 = assay: cells; assay type: functional, cell-based; conditions: Homo sapiens
Description: SANGER: Inhibition of human MDA-MB-453 cell growth in a cell viability assay.

OE33 = assay: cells; assay type: functional, cell-based; conditions: Homo sapiens;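 note: growth inhibition of human OE33 cells, measured by a cell viability assay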
Description: SANGER: Inhibition of human OE33 cell growth in a cell viability assay.

MCF7 = assay: cells; assay type: functional, cell-based; conditions: Homo sapiens;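 note: growth inhibition of human MCF7 cells, read out with a cell viability assay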
Description: SANGER: Inhibition of human MCF7 cell growth in a cell viability assay.

ME-180 = assay: cells; assay type: functional, cell-based; conditions: Homo sapiens;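 note: cell viability assay measuring growth inhibition of ME-180 cells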
Description: SANGER: Inhibition of human ME-180 cell growth in a cell viability assay.

LCLC-103H cell line = assay: cells; assay type: functional, cell-based; conditions: Homo sapiens
Description: SANGER: Inhibition of human LCLC-103H cell growth in a cell viability assay.

COLO-678 = assay: cells; assay type: functional, cell-based; conditions: Homo sapiens
Description: SANGER: Inhibition of human COLO-678 cell growth in a cell viability assay.

AGS = assay: cells; assay type: functional, cell-based; conditions: Homo sapiens;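 note: growth inhibition of AGS cells, determined with a cell viability assay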
Description: SANGER: Inhibition of human AGS cell growth in a cell viability assay.

LCLC-97TM1 = assay: cells; assay type: functional, cell-based; conditions: Homo sapiens;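 note: cell viability assay measuring growth inhibition of human LCLC-97TM1 cells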
Description: SANGER: Inhibition of human LCLC-97TM1 cell growth in a cell viability assay.

D-392MG = assay: cells; assay type: functional, cell-based; conditions: Homo sapiens
NCI-H2342 = assay: cells; assay type: functional, cell-based; conditions: Homo sapiens;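 note: growth inhibition of the cancer cell line, determined with a cell viability assay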
Description: SANGER: Inhibition of human NCI-H2342 cell growth in a cell viability assay.

LN-405 = assay: cells; assay type: functional, cell-based; conditions: Homo sapiens
Description: SANGER: Inhibition of human LN-405 cell growth in a cell viability assay.

HGC-27 = assay: cells; assay type: functional, cell-based; conditions: Homo sapiens;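 note: growth inhibition of human HGC-27 cells, read out in a cell viability assay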
Description: SANGER: Inhibition of human HGC-27 cell growth in a cell viability assay.

G-402 = assay: cells; assay type: functional, cell-based; conditions: Homo sapiens
Description: SANGER: Inhibition of human G-402 cell growth in a cell viability assay.

A673 = assay: cells; assay type: functional, cell-based; conditions: Homo sapiens;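 note: growth inhibition of human A673 cells, read out through a cell viability assay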
Description: SANGER: Inhibition of human A673 cell growth in a cell viability assay.

MKN-28 = assay: cells; assay type: functional, cell-based; conditions: Homo sapiens;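 note: cell viability assay read-out, IC50 reflects suppression of growth of human MKN-28 cells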
Description: SANGER: Inhibition of human MKN28 cell growth in a cell viability assay.

MHH-ES-1 = assay: cells; assay type: functional, cell-based; conditions: Homo sapiens
Description: SANGER: Inhibition of human MHH-ES-1 cell growth in a cell viability assay.

SKG-IIIa = assay: cells; assay type: functional, cell-based; conditions: Homo sapiens;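 note: cell growth inhibition, read out with a cell viability assay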
Description: SANGER: Inhibition of human SKG-IIIa cell growth in a cell viability assay.

UACC-893 = assay: cells; assay type: functional, cell-based; conditions: Homo sapiens
Description: SANGER: Inhibition of human UACC-893 cell growth in a cell viability assay.

SW48 = assay: cells; assay type: functional, cell-based; conditions: Homo sapiens;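 note: growth inhibition of SW48 cells, read out with a cell viability assay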
Description: SANGER: Inhibition of human SW48 cell growth in a cell viability assay.

EGI-1 = assay: cells; assay type: functional, cell-based; conditions: Homo sapiens;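 note: cell viability readout used to gauge growth inhibition of EGI-1 cells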
Description: SANGER: Inhibition of human EGI-1 cell growth in a cell viability assay.

U-698-M = assay: cells; assay type: functional, cell-based, Homo sapiens; conditions: Homo sapiens, U-698-M
Description: SANGER: Inhibition of human U-698-M cell growth in a cell viability assay.

TCC-SUP = assay: cells; assay type: functional, cell-based; conditions: Homo sapiens;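 note: growth inhibition of TCC-SUP cells, read out with a cell viability assay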
Description: SANGER: Inhibition of human TCCSUP cell growth in a cell viability assay.

HN = assay: cells; assay type: functional, cell-based; conditions: Homo sapiens
Description: SANGER: Inhibition of human HN cell growth in a cell viability assay.

Capan-2 = assay: cells; assay type: functional, cell-based; conditions: Homo sapiens;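 note: Capan-2 cell growth inhibition, read out with a viability assay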
Description: SANGER: Inhibition of human Capan-2 cell growth in a cell viability assay.

NCI-H748 = assay: cells; assay type: functional, cell-based, Homo sapiens; conditions: Homo sapiens, NCI-H748;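 note: growth inhibition of NCI-H748 cells, measured by a cell viability assay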
Description: SANGER: Inhibition of human NCI-H748 cell growth in a cell viability assay.

SIG-M5 = assay: cells; assay type: functional, cell-based, Homo sapiens; conditions: Homo sapiens, SIG-M5;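 note: cell viability assay read-out, measuring how strongly growth of cultured human SIG-M5 cells is inhibited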
Description: SANGER: Inhibition of human SIG-M5 cell growth in a cell viability assay.

Detroit 562 = assay: cells; assay type: functional, cell-based; conditions: Homo sapiens;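 note: growth inhibition of human Detroit 562 cells, read out by a cell viability assay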
Description: SANGER: Inhibition of human Detroit562 cell growth in a cell viability assay.

Raji = assay: cells; assay type: functional, cell-based, Homo sapiens; conditions: Homo sapiens, Raji;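 note: cell viability assay measuring inhibition of Raji cell growth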
Description: SANGER: Inhibition of human Raji cell growth in a cell viability assay.

NCI-H1693 = assay: cells; assay type: functional, cell-based; conditions: Homo sapiens;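 note: growth inhibition of the human cell line, read out with a cell viability assay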
Description: SANGER: Inhibition of human NCI-H1693 cell growth in a cell viability assay.

NCI-H510A = assay: cells; assay type: functional, cell-based, Homo sapiens; conditions: Homo sapiens, NCI-H510A;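 note: growth inhibition of NCI-H510A cells, read out with a cell viability assay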
Description: SANGER: Inhibition of human NCI-H510A cell growth in a cell viability assay.

NCI-H716 = assay: cells; assay type: functional, cell-based, Homo sapiens; conditions: Homo sapiens, NCI-H716;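 note: growth inhibition of human NCI-H716 cells, measured by a cell viability assay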
Description: SANGER: Inhibition of human NCI-H716 cell growth in a cell viability assay.

KP-N-YN = assay: cells; assay type: functional, cell-based; conditions: Homo sapiens;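 note: growth inhibition of KP-N-YN cells, read out with a cell viability assay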
Description: SANGER: Inhibition of human KP-N-YN cell growth in a cell viability assay.

NCI-H596 = assay: cells; assay type: functional, cell-based; conditions: Homo sapiens;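 note: growth inhibition of NCI-H596 cells, read out with a cell viability assay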
Description: SANGER: Inhibition of human NCI-H596 cell growth in a cell viability assay.

SN12C = assay: cells; assay type: functional, cell-based; conditions: Homo sapiens;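 note: growth inhibition of human SN12C cells, measured by a cell viability assay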
Description: SANGER: Inhibition of human SN12C cell growth in a cell viability assay.

CPC-N = assay: cells; assay type: functional, cell-based, Homo sapiens; conditions: Homo sapiens, CPC-N;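 note: growth inhibition of CPC-N cells, with a cell viability assay as the readout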
Description: SANGER: Inhibition of human CPC-N cell growth in a cell viability assay.

HCT-116 = assay: cells; assay type: functional, cell-based; conditions: Homo sapiens
Description: SANGER: Inhibition of human HCT-116 cell growth in a cell viability assay.

SK-MEL-24 = assay: cells; assay type: functional, cell-based; conditions: Homo sapiens;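 note: growth inhibition read out by a cell viability assay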
Description: SANGER: Inhibition of human SK-MEL-24 cell growth in a cell viability assay.

CWR22R = assay: cells; assay type: functional, cell-based; conditions: Homo sapiens, 22Rv1;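 note: growth inhibition of 22Rv1 cells, read out with a cell viability assay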
Description: SANGER: Inhibition of human 22RV1 cell growth in a cell viability assay.

MHH-CALL-2 = assay: cells; assay type: functional, cell-based, Homo sapiens; conditions: Homo sapiens, MHH-CALL-2;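 note: growth inhibition of the cell line, read out in a cell viability assay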
Description: SANGER: Inhibition of human MHH-CALL-2 cell growth in a cell viability assay.

UO-31 = assay: cells; assay type: functional, cell-based; conditions: Homo sapiens
Description: SANGER: Inhibition of human U031 cell growth in a cell viability assay.

HSC-4 = assay: cells; assay type: functional, cell-based; conditions: Homo sapiens;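 note: growth inhibition of human HSC-4 cells, read out with a cell viability assay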
Description: SANGER: Inhibition of human HSC-4 cell growth in a cell viability assay.

DU-145 = assay: cells; assay type: functional, cell-based; conditions: Homo sapiens
Description: SANGER: Inhibition of human DU-145 cell growth in a cell viability assay.

KOSC-2 = assay: cells; assay type: functional, cell-based; conditions: Homo sapiens;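 note: growth inhibition of KOSC-2 cells, read out by a cell viability assay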
Description: SANGER: Inhibition of human KOSC-2 cell growth in a cell viability assay.

23132-87 = assay: cells; assay type: functional, cell-based; conditions: Homo sapiens
Description: SANGER: Inhibition of human 23132-87 cell growth in a cell viability assay.

RPMI-7951 = assay: cells; assay type: functional, cell-based; conditions: Homo sapiens
Description: SANGER: Inhibition of human RPMI-7951 cell growth in a cell viability assay.

MFE-280 = assay: cells; assay type: functional, cell-based; conditions: Homo sapiens;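 note: growth inhibition of MFE-280 cells, determined with a cell viability readout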
Description: SANGER: Inhibition of human MFE-280 cell growth in a cell viability assay.

MEL-HO = assay: cells; assay type: functional, cell-based; conditions: Homo sapiens
Description: SANGER: Inhibition of human MEL-HO cell growth in a cell viability assay.

KMOE-2 = assay: cells; assay type: functional, cell-based, Homo sapiens; conditions: Homo sapiens, KMOE-2;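 note: growth inhibition of human KMOE-2 cells, read out with a cell viability assay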
Description: SANGER: Inhibition of human KMOE-2 cell growth in a cell viability assay.

JIYOYE = assay: cells; assay type: functional, cell-based, Homo sapiens; conditions: Homo sapiens, JIYOYE
Description: SANGER: Inhibition of human JiyoyeP-2003 cell growth in a cell viability assay.

A-427 = assay: cells; assay type: functional, cell-based; conditions: Homo sapiens;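 note: growth inhibition of human A-427 cells, read out by a cell viability assay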
Description: SANGER: Inhibition of human A427 cell growth in a cell viability assay.

HT55 = assay: cells; assay type: functional, cell-based; conditions: Homo sapiens;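 note: cell viability readout measuring growth inhibition of human HT55 cells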
Description: SANGER: Inhibition of human HT55 cell growth in a cell viability assay.

LOUCY = assay: cells; assay type: functional, cell-based, Homo sapiens; conditions: Homo sapiens, LOUCY;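 note: growth inhibition of human LOUCY cells, read out with a cell viability assay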
Description: SANGER: Inhibition of human LOUCY cell growth in a cell viability assay.

CESS = assay: SANGER: Inhibition of human CESS cell growth in a cell viability assay.; assay type: functional, cell-based; conditions: Homo sapiens, CESS
IGR-1 = assay: cells; assay type: functional, cell-based; conditions: Homo sapiens;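 note: growth inhibition of human IGR-1 cells, read out with a cell viability assay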
Description: SANGER: Inhibition of human IGR-1 cell growth in a cell viability assay.

EFO-27 = assay: cells; assay type: functional, cell-based; conditions: Homo sapiens;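 note: growth inhibition of EFO-27 cells, read out with a cell viability assay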
Description: SANGER: Inhibition of human EFO-27 cell growth in a cell viability assay.

Q: Which results are given for `C/C(=C\c1csc(C)n1)[C@@H]1C[C@@H]2O[C@]2(C)CCC[C@H](C)[C@H](O)[C@@H](C)C(=O)C(C)(C)[C@@H](O)CC(=O)O1` [PATUPILONE]?
A: pIC50 (SJRH30): 7.89; pIC50 (HTC-C3): 8.53; pIC50 (SW1783): 8.83; pIC50 (ESS-1): 8.82; pIC50 (MDA-MB-453): < 7.49; pIC50 (OE33): 8.12; pIC50 (MCF7): 10.06; pIC50 (ME-180): 8.24; pIC50 (LCLC-103H cell line): 9.51; pIC50 (COLO-678): < 7.49; pIC50 (AGS): 8.59; pIC50 (LCLC-97TM1): 9.35; pIC50 (D-392MG): < 7.49; pIC50 (NCI-H2342): 9.24; pIC50 (LN-405): < 7.49; pIC50 (HGC-27): 9.47; pIC50 (G-402): 8.28; pIC50 (A673): 8.61; pIC50 (MKN-28): 9.34; pIC50 (MHH-ES-1): 9.05; pIC50 (SKG-IIIa): < 7.49; pIC50 (UACC-893): < 7.49; pIC50 (SW48): 8.38; pIC50 (EGI-1): < 7.49; pIC50 (U-698-M): 8.11; pIC50 (TCC-SUP): 8.35; pIC50 (HN): < 7.49; pIC50 (Capan-2): 7.52; pIC50 (NCI-H748): < 7.49; pIC50 (SIG-M5): 9.77; pIC50 (Detroit 562): 8.85; pIC50 (Raji): < 7.49; pIC50 (NCI-H1693): < 7.49; pIC50 (NCI-H510A): 7.93; pIC50 (NCI-H716): < 7.49; pIC50 (KP-N-YN): < 7.49; pIC50 (NCI-H596): 7.93; pIC50 (SN12C): 8.03; pIC50 (CPC-N): 7.97; pIC50 (HCT-116): 8.33; pIC50 (SK-MEL-24): < 7.49; pIC50 (CWR22R): 8.08; pIC50 (MHH-CALL-2): < 7.49; pIC50 (UO-31): 8.51; pIC50 (HSC-4): 7.52; pIC50 (DU-145): 9.14; pIC50 (KOSC-2): 8.55; pIC50 (23132-87): 8.44; pIC50 (RPMI-7951): 8.98; pIC50 (MFE-280): < 7.49; pIC50 (MEL-HO): 8.77; pIC50 (KMOE-2): < 7.49; pIC50 (JIYOYE): 8.11; pIC50 (A-427): 9.08; pIC50 (HT55): < 7.49; pIC50 (LOUCY): 8.36; pIC50 (CESS): 8.47; pIC50 (IGR-1): 9.06; pIC50 (EFO-27): 8.77

Q: With `OC[C@H](Cc1ccccc1)Nc1nc(Oc2ccc3c(c2)CCC3)nc2c1ncn2Cc1ccc(-c2ccccc2)cc1` as the compound, how does the pIC50 (SJRH30) read?
A: < 4.99

Q: And the pIC50 (HTC-C3)?
A: < 4.99

Q: What about the pIC50 (SW1783) of the same compound?
A: < 4.99

Q: What about the pIC50 (ESS-1) of the same compound?
A: < 4.99

Q: And the pIC50 (MDA-MB-453)?
A: < 4.99

Q: What about the pIC50 (OE33) of the same compound?
A: < 4.99

Q: What about the pIC50 (MCF7) of the same compound?
A: 5.65

Q: And the pIC50 (ME-180)?
A: < 4.99

Q: What about the pIC50 (LCLC-103H cell line) of the same compound?
A: < 4.99

Q: And the pIC50 (COLO-678)?
A: < 4.99

Q: And the pIC50 (AGS)?
A: 5.17

Q: What about the pIC50 (LCLC-97TM1) of the same compound?
A: 5.19

Q: And the pIC50 (D-392MG)?
A: < 4.99

Q: And the pIC50 (NCI-H2342)?
A: 5.43

Q: What about the pIC50 (LN-405) of the same compound?
A: < 4.99

Q: And the pIC50 (HGC-27)?
A: 5.64

Q: And the pIC50 (G-402)?
A: < 4.99

Q: And the pIC50 (A673)?
A: < 4.99

Q: And the pIC50 (MKN-28)?
A: 5.76

Q: And the pIC50 (MHH-ES-1)?
A: < 4.99

Q: And the pIC50 (SKG-IIIa)?
A: < 4.99

Q: What about the pIC50 (UACC-893) of the same compound?
A: < 4.99

Q: And the pIC50 (SW48)?
A: < 4.99

Q: What about the pIC50 (EGI-1) of the same compound?
A: < 4.99

Q: What about the pIC50 (U-698-M) of the same compound?
A: < 4.99

Q: What about the pIC50 (TCC-SUP) of the same compound?
A: < 4.99

Q: What about the pIC50 (HN) of the same compound?
A: 5.09

Q: And the pIC50 (Capan-2)?
A: < 4.99

Q: What about the pIC50 (NCI-H748) of the same compound?
A: < 4.99

Q: And the pIC50 (SIG-M5)?
A: 6.18

Q: What about the pIC50 (Detroit 562) of the same compound?
A: < 4.99

Q: What about the pIC50 (Raji) of the same compound?
A: < 4.99

Q: What about the pIC50 (NCI-H1693) of the same compound?
A: 5.15

Q: And the pIC50 (NCI-H510A)?
A: < 4.99

Q: And the pIC50 (NCI-H716)?
A: < 4.99

Q: What about the pIC50 (KP-N-YN) of the same compound?
A: < 4.99

Q: What about the pIC50 (NCI-H596) of the same compound?
A: < 4.99

Q: And the pIC50 (SN12C)?
A: < 4.99

Q: And the pIC50 (CPC-N)?
A: < 4.99

Q: And the pIC50 (HCT-116)?
A: < 4.99

Q: And the pIC50 (SK-MEL-24)?
A: < 4.99

Q: And the pIC50 (CWR22R)?
A: < 4.99

Q: What about the pIC50 (MHH-CALL-2) of the same compound?
A: < 4.99

Q: And the pIC50 (UO-31)?
A: < 4.99

Q: What about the pIC50 (HSC-4) of the same compound?
A: < 4.99

Q: What about the pIC50 (DU-145) of the same compound?
A: 5.10

Q: And the pIC50 (KOSC-2)?
A: < 4.99

Q: What about the pIC50 (23132-87) of the same compound?
A: 5.22

Q: What about the pIC50 (RPMI-7951) of the same compound?
A: 5.85

Q: And the pIC50 (MFE-280)?
A: < 4.99

Q: What about the pIC50 (MEL-HO) of the same compound?
A: 5.08

Q: What about the pIC50 (KMOE-2) of the same compound?
A: < 4.99

Q: And the pIC50 (JIYOYE)?
A: < 4.99

Q: What about the pIC50 (A-427) of the same compound?
A: < 4.99

Q: What about the pIC50 (HT55) of the same compound?
A: < 4.99

Q: What about the pIC50 (LOUCY) of the same compound?
A: < 4.99

Q: What about the pIC50 (CESS) of the same compound?
A: < 4.99

Q: And the pIC50 (IGR-1)?
A: < 4.99

Q: What about the pIC50 (EFO-27) of the same compound?
A: < 4.99
